From US20220354782A1, “SUBCUTANEOUSLY INJECTABLE INSULIN AND GLUCAGON FORMULATIONS AND METHODS OF ADMINISTRATION” (CASS PHARMACEUTICALS, INC., priority 2019, published 2022)
Where two headings read alike, the source gives them in different places.

Tests used:
[1] = Solubility of insulin, FDKP and insulin plus FDKP between pH 6.0 and pH 7.4 (Example 9); type: physicochemical
Description: A standard solution of insulin (using recombinant human insulin) was made in 0.05N aqueous HCl. An aliquot (1 mg) of the solution was transferred into 4 different Eppendorf tubes and 9 mg of solid Na2-FDKP was added into each tube. A milky suspension formed immediately. The pH was adjusted to the values between pH 6.0 and pH 7.4 using 0.1N aqueous NaOH. Samples of insulin alone were compared to FDKP alone and to the solution of insulin and FDKP. The insulin alone samples were all insoluble. […] All samples containing 9 mg/ml FDKP and 1 mg/ml insulin were soluble at all pH values.

[2] = FDKP micelle formation; type: physicochemical; conditions: FIG. 3
Description: FIG. 3 is a graph depicting the concentration of FDKP for forming micelles in phosphate buffer at pH 7.4 above 0.03 mg/ml.
Without being restricted to any one mechanism for creating the ultra-fast insulin formulations, a diketopiperazine, for example FDKP, has effects as an absorption enhancer and permeation enhancer, a metal chelator, a surfactant, a bolaamphiphile, and an aggregation inhibitor, and promotes enhanced absorption through a combination of these effects, including enhancing the amount of monomer insulin in solution upon injection. For example, the fumaric acid charges on the FDKP may serve to charge-mask insulin positive charges, reducing the overall charge on the insulin, and making it more likely to be absorbed, especially when formulations have a pH of about 6.0 to about 7.2, as described herein.

[3] = system: diabetic minipigs; test: Glucose response after subcutaneous injection in diabetic minipigs (Example 8); type: in vivo, Yucatan minipigs
Description: Recombinant human insulin were prepared in ultra-fast acting subcutaneous injectable formulations in aqueous solutions containing FDKP at pH 6.5 and 7.4, as summarized in Table 6. All formulation preparation was conducted in a laminar flow hood and the final solutions were filtered through 0.2 micron filters. Both formulations were injected into the subcutaneous tissue of diabetic minipigs (Yucatan minipigs rendered diabetic by treatment with alloxan).
The glucose response from the pH 6.5 formulation compared to a subcutaneous injection of standard lispro insulin is shown in FIG. 1. […] Time to 50% glucose reduction from the formulation is 30 minutes, while that from standard lispro is 50 minutes.
The glucose response from the […] formulation compared to a subcutaneous injection of the ultra-fast acting pH 6.5 formulation, both containing FDKP, are shown in FIG. 2. […] The strong pH dependency of the absorption rate was not anticipated. While not wanting to be held to a specific mechanism for the rapid absorption, the lower pH solution appears to cause there to be less charge on the FDKP, which would make it more hydrophobic, and therefore more likely to bind tightly to the insulin molecule, thereby reducing the overall charge on insulin, causing there to be more monomers in solution, and enhancing the absorption by several mechanisms.

Row | concentration for forming micelles [2] [µM] | solubility ([1]; below pH 7.0) | solubility ([1]; pH 6.0) | solubility ([1]; pH 7.0, listed as FDKP (9 mg/mL)) | solubility ([1]; pH 7.0, listed as FDKP alone) | solubility ([1]; pH 7.4, listed as FDKP (9 mg/mL)) | solubility ([1]; pH 7.4, listed as FDKP alone) | Molecule | solubility [1] | solubility ([1]; pH 6) | solubility ([1]; pH 6.5) | solubility ([1]; pH 7) | solubility ([1]; pH 7.4) | Time to 50% glucose reduction [3] [min]
1 |  |  |  |  |  |  |  | Insulin (1 mg/mL): Recombinant human insulin, 1 mg/mL, without FDKP [reference compound] | insoluble | insoluble | Insoluble | Insoluble | Insoluble | 
2 | ≥ 62 | insoluble | Insoluble | Partial | partially soluble | Soluble | soluble | O=C(O)/C=C/C(=O)NCCCCC1NC(=O)C(CCCCNC(=O)/C=C/C(=O)O)NC1=O (centres unmarked) [FDKP, 2,5-diketo-3,6-di(4-fumarylaminobutyl)piperazine] |  |  | Insoluble |  |  | 
3 |  |  |  |  |  |  |  | insulin lispro [standard lispro] |  |  |  |  |  | 50
